# Patent US20260001889A1, “COMPOSITIONS USEFUL FOR MODULATING SPLICING” (Skyhawk Therapeutics, Inc., priority 2022, published 2026)
# pEC50, pIC50: −log10 of the molar value.
# Columns and labels:
# [1] = system: ATXN3 transcripts containing exon 4; assay: ATXN3 Quantitative Splicing Assay (qPCR, E4E5 primers/probe); format: cell-based; details: Homo sapiens, SK-N-MC cells, compounds for 24 h
# Procedure, shortened: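 Exon 4-containing ATXN3 transcripts are quantified by TaqMan qPCR (E4E5 primers/probe) on cell-lysate cDNA, with total ATXN3 from the E8E9 set. Source cells: human neuroblastoma SK-N-MC, exposed for 24 h to compound at 30 μM down to 0.6 nM.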
# total ATXN3 protein = assay: ATXN3 Total Protein Assay (Mesoscale Discovery, SK-N-MC cells); format: cell-based, Human; details: incubation for 48 hours, MSD assay
# Procedure, shortened: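 Readout: MSD electrochemiluminescence immunoassay of lysates, calibrated with recombinant ATXN3 and using mouse/rabbit anti-ATXN3 antibody pair. Cells (SK-N-MC, human) were exposed for 48 h to compound doses between 30 μM and 0.6 nM.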
# ATXN3-HiBiT protein = assay: ATXN3 Total Protein Assay (Kelly-ATXN3-HiBiT luminescence); format: cell-based; details: Kelly-ATXN3-HiBiT cells, 48 h after addition of compound
# Procedure, shortened: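 Endogenous ATXN3-HiBiT protein in knock-in Kelly neuroblastoma cells measured by lytic HiBiT luminescence 48 h post-compound (added 24 h after seeding 2000 cells/well). Values are fold changes relative to DMSO, with viability from a parallel CellTiter-Glo plate.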
pIC50 [1],pIC50 (total ATXN3 protein),pEC50 (ATXN3-HiBiT protein),SMILES
7.00 to 11.00,7.00 to 11.00,6.30 to 7.00,"C[C@H](F)[C@H](N)Cc1oc2c(NCc3nccs3)cc(Cl)nc2c1Cl [Compound 109, 2-[(2R,3S)-2-amino-3-fluorobutyl]-3,5-dichloro-7-{[(1,3-thiazol-2-yl)methyl]amino}-1-oxa-4-azaindene]"
6.30 to 7.00,6.30 to 7.00,6.30 to 7.00,"C[C@H](F)[C@H](N)Cc1oc2c(NCc3ccccc3)cc(Cl)nc2c1Cl [Compound 110, 2-[(2R,3S)-2-amino-3-fluorobutyl]-7-benzylamino-3,5-dichloro-1-oxa-4-azaindene]"
6.30 to 7.00,6.30 to 7.00,6.30 to 7.00,"Cc1c(C[C@@H](N)[C@H](C)F)oc2c(NCc3cccs3)cc(C#N)nc12 [Compound 111, 2-[(2R,3S)-2-amino-3-fluorobutyl]-3-methyl-7-thenylamino-1-oxa-4-aza-5-indenecarbonitrile]"
6.30 to 7.00,6.30 to 7.00,6.30 to 7.00,"COC[C@H](N)Cc1oc2c(NCc3ccncc3)cc(Cl)nc2c1Cl [Compound 113, 2-[(R)-2-amino-3-methoxypropyl]-3,5-dichloro-7-{[(4-pyridyl)methyl]amino}-1-oxa-4-azaindene]"
5.30 to 6.30,5.30 to 6.30,5.30 to 6.30,"C[C@@H](F)[C@H](N)Cc1oc2c(NCc3ccco3)cc(Cl)nc2c1Br [Compound 114, 2-[(2R,3R)-2-amino-3-fluorobutyl]-3-bromo-5-chloro-7-(furfurylamino)-1-oxa-4-azaindene]"
6.30 to 7.00,6.30 to 7.00,6.30 to 7.00,"N[C@@H](COC1CC1)Cc1oc2c(NCc3cccs3)cc(Cl)nc2c1Br [Compound 115, 2-[(R)-2-amino-3-cyclopropoxypropyl]-3-bromo-5-chloro-7-thenylamino-1-oxa-4-azaindene]"
6.30 to 7.00,6.30 to 7.00,5.30 to 6.30,"N[C@@H](COC(F)(F)F)Cc1oc2c(NCc3cccs3)cc(Cl)nc2c1Br [Compound 116, 2-[(R)-2-amino-3-trifluoromethoxypropyl]-3-bromo-5-chloro-7-thenylamino-1-oxa-4-azaindene]"
7.00 to 11.00,7.00 to 11.00,7.00 to 11.00,"N[C@@H](COC(F)F)Cc1oc2c(NCc3cccs3)cc(Cl)nc2c1Br [Compound 117, 2-[(R)-2-amino-3-difluoromethoxypropyl]-3-bromo-5-chloro-7-thenylamino-1-oxa-4-azaindene]"
7.00 to 11.00,7.00 to 11.00,7.00 to 11.00,"C[C@H](F)[C@H](N)Cc1oc2c(NCc3ccco3)cc(Cl)nc2c1Br [Compound 118, 2-[(2R,3S)-2-amino-3-fluorobutyl]-3-bromo-5-chloro-7-(furfurylamino)-1-oxa-4-azaindene]"
7.00 to 11.00,7.00 to 11.00,6.30 to 7.00,"C[C@H](F)[C@H](N)Cc1oc2c(NCc3ccncc3)cc(Cl)nc2c1Br [Compound 119, 2-[(2R,3S)-2-amino-3-fluorobutyl]-3-bromo-5-chloro-7-{[(4-pyridyl)methyl]amino}-1-oxa-4-azaindene]"
6.30 to 7.00,6.30 to 7.00,5.30 to 6.30,"C#Cc1c(C[C@@H](N)CC(F)(F)F)oc2c(NCc3ccco3)cc(Cl)nc12 [Compound 120, 2-[(R)-2-amino-4,4,4-trifluorobutyl]-5-chloro-3-ethynyl-7-(furfurylamino)-1-oxa-4-azaindene]"
6.30 to 7.00,6.30 to 7.00,6.30 to 7.00,"C#Cc1c(C[C@@H](N)CC(F)(F)F)oc2c(NCc3cccs3)cc(Cl)nc12 [Compound 121, 2-[(R)-2-amino-4,4,4-trifluorobutyl]-5-chloro-3-ethynyl-7-thenylamino-1-oxa-4-azaindene]"
7.00 to 11.00,7.00 to 11.00,7.00 to 11.00,"C#Cc1c(C[C@@H](N)[C@H](C)F)oc2c(NCc3ccco3)cc(Cl)nc12 [Compound 122, 2-[(2R,3S)-2-amino-3-fluorobutyl]-5-chloro-3-ethynyl-7-(furfurylamino)-1-oxa-4-azaindene]"
7.00 to 11.00,7.00 to 11.00,7.00 to 11.00,"C#Cc1c(C[C@@H](N)[C@H](C)F)oc2c(NCc3cccs3)cc(Cl)nc12 [Compound 123, 2-[(2R,3S)-2-amino-3-fluorobutyl]-5-chloro-3-ethynyl-7-thenylamino-1-oxa-4-azaindene]"
7.00 to 11.00,7.00 to 11.00,7.00 to 11.00,"C[C@H](O)[C@H](N)Cc1oc2c(NCc3cccs3)cc(Cl)nc2c1Br [Compound 125, (2S,3R)-3-amino-4-(3-bromo-5-chloro-7-thenylamino-1-oxa-4-aza-2-indenyl)-2-butanol]"
6.30 to 7.00,6.30 to 7.00,6.30 to 7.00,"C[C@@H](O)[C@H](N)Cc1oc2c(NCc3cccs3)cc(Cl)nc2c1Br [Compound 126, (2R,3R)-3-amino-4-(3-bromo-5-chloro-7-thenylamino-1-oxa-4-aza-2-indenyl)-2-butanol]"
6.30 to 7.00,7.00 to 11.00,7.00 to 11.00,"N[C@@H](CCO)Cc1oc2c(NCc3cccs3)cc(Cl)nc2c1Br [Compound 131, (S)-3-amino-4-(3-bromo-5-chloro-7-thenylamino-1-oxa-4-aza-2-indenyl)-1-butanol]"
5.30 to 6.30,6.30 to 7.00,5.30 to 6.30,"CC#C[C@H](N)Cc1oc2c(NCc3cccs3)cc(Cl)nc2c1Br [Compound 132, 2-[(R)-2-amino-3-pentynyl]-3-bromo-5-chloro-7-thenylamino-1-oxa-4-azaindene]"
5.30 to 6.30,5.30 to 6.30,5.30 to 6.30,"N[C@H](Cc1oc2c(NCc3cccs3)cc(Cl)nc2c1Br)C1CC(F)(F)C1 [Compound 133, 2-[(R)-2-amino-2-(3,3-difluorocyclobutyl)ethyl]-3-bromo-5-chloro-7-thenylamino-1-oxa-4-azaindene]"
5.30 to 6.30,5.30 to 6.30,5.30 to 6.30,"N[C@H](Cc1oc2c(NCc3cccs3)cc(Cl)nc2c1Br)C1CC1 [Compound 134, 2-[(R)-2-amino-2-cyclopropylethyl]-3-bromo-5-chloro-7-thenylamino-1-oxa-4-azaindene]"
5.30 to 6.30,5.30 to 6.30,5.30 to 6.30,"C#Cc1c(C[C@@H](N)C2CC(F)(F)C2)oc2c(NCc3cccs3)cc(Cl)nc12 [Compound 139, 2-[(R)-2-amino-2-(3,3-difluorocyclobutyl)ethyl]-5-chloro-3-ethynyl-7-thenylamino-1-oxa-4-azaindene]"
6.30 to 7.00,6.30 to 7.00,6.30 to 7.00,"C[C@H](F)[C@H](N)Cc1oc2c(NCc3sccc3F)cc(Cl)nc2c1Cl [Compound 140, 2-[(2R,3S)-2-amino-3-fluorobutyl]-3,5-dichloro-7-{[(3-fluoro-2-thienyl)methyl]amino}-1-oxa-4-azaindene]"
6.30 to 7.00,6.30 to 7.00,6.30 to 7.00,"Cc1c(C[C@@H](N)[C@H](C)F)oc2c(NCc3sccc3F)cc(Cl)nc12 [Compound 142, 2-[(2R,3S)-2-amino-3-fluorobutyl]-5-chloro-7-{[(3-fluoro-2-thienyl)methyl]amino}-3-methyl-1-oxa-4-azaindene]"
6.30 to 7.00,6.30 to 7.00,6.30 to 7.00,"N[C@@H](CCF)Cc1oc2c(NCc3cccs3)cc(Cl)nc2c1Br [Compound 145, 2-[(R)-2-amino-4-fluorobutyl]-3-bromo-5-chloro-7-thenylamino-1-oxa-4-azaindene]"
7.00 to 11.00,7.00 to 11.00,7.00 to 11.00,"C[C@H](F)[C@H](N)Cc1oc2c(NCc3cccs3)cc(Cl)nc2c1Cl [Compound 148, 2-[(2R,3S)-2-amino-3-fluorobutyl]-3,5-dichloro-7-thenylamino-1-oxa-4-azaindene]"
6.30 to 7.00,6.30 to 7.00,6.30 to 7.00,"C[C@H](F)[C@H](N)Cc1oc2c(NCc3ccncc3F)cc(Cl)nc2c1Cl [Compound 149, 2-[(2R,3S)-2-amino-3-fluorobutyl]-3,5-dichloro-7-{[(3-fluoro-4-pyridyl)methyl]amino}-1-oxa-4-azaindene]"
7.00 to 11.00,7.00 to 11.00,7.00 to 11.00,"C[C@H](F)[C@H](N)Cc1oc2c(NCc3ccco3)cc(Cl)nc2c1Cl [Compound 150, 2-[(2R,3S)-2-amino-3-fluorobutyl]-3,5-dichloro-7-(furfurylamino)-1-oxa-4-azaindene]"
7.00 to 11.00,6.30 to 7.00,7.00 to 11.00,"C#Cc1cc(NCc2cccs2)c2oc(C[C@@H](N)COC)c(Br)c2n1 [Compound 151, 2-[(R)-2-amino-3-methoxypropyl]-3-bromo-5-ethynyl-7-thenylamino-1-oxa-4-azaindene]"
6.30 to 7.00,6.30 to 7.00,5.30 to 6.30,"C[C@H](F)[C@H](N)Cc1oc2c(NCc3ccccc3F)cc(Cl)nc2c1Br [Compound 152, 2-[(2R,3S)-2-amino-3-fluorobutyl]-3-bromo-5-chloro-7-{[(o-fluorophenyl)methyl]amino}-1-oxa-4-azaindene]"

SMILES,pIC50 [1],pIC50 (total ATXN3 protein),pEC50 (ATXN3-HiBiT protein)
"C#Cc1cc(NCc2ccco2)c2oc(C[C@H](C)N)c(Br)c2n1 [Compound 112, 2-[(S)-2-aminopropyl]-3-bromo-5-ethynyl-7-(furfurylamino)-1-oxa-4-azaindene]",6.30 to 7.00,6.30 to 7.00,7.00 to 11.00
"C[C@H](N)Cc1oc2c(NCc3ncco3)cc(Cl)nc2c1Br [Compound 124, 2-[(2S)-2-aminopropyl]-3-bromo-5-chloro-N-(1,3-oxazol-2-ylmethyl) furo[3,2-b]pyridin-7-amine]",5.30 to 6.30,5.30 to 6.30,5.30 to 6.30
